Article PMC13489962, “Small-molecule modulation of β-arrestins” (Nature, 2026)

Key:
βARR1 C251A = molecular target: T1, βARR1 C251A (Rattus norvegicus, UniProt P29066, C251A); test: ITC binding to βARR1 mutant C251A
T1 construct: βARR1 or βARR2 construct, with their C terminus truncated (at amino acid 393 or 394, respectively); GST (pGEX4T1) (N, cleaved yes); made in house; host or cells: E. coli BL21 (DE3) pLysS
Protocol: (§1) The expression and purification of β-arrestins have been described previously[44],[62]–[64]. In brief, E. coli BL21 (DE3) pLysS cells (New England Biolabs: C2527I) carrying pGEX4T1-Rattus norvegicus βARR1 or βARR2 construct, with their C terminus truncated (at amino acid 393 or 394, respectively), were cultured in Terrific Broth (Teknova) medium at 37 °C. After OD600 reached 0.6–0.8, the cells were induced with 0.1 mM isopropyl-β-D-thiogalactopyranoside (IPTG) at 18 °C overnight. Bacteria were collected by centrifugation (4,000 rpm), and cell pellets were resuspended in lysis buffer (20 mM HEPES, pH 8, 150 mM NaCl, 10% glycerol, 1 mM EDTA, 0.2 mM dithiothreitol (DTT), 1 mM phenylmethylsulfonyl fluoride, and 1 mM benzamidine) at 4 °C for 1 h. […] Eluted fractions were analysed by SDS–PAGE, pooled, concentrated using 30 kDa MWCO Amicon Ultra-15 Centrifugal Filter devices, flash-frozen in liquid nitrogen, and stored in aliquots at −80 °C. […] Protein concentrations for each protein were determined by ultraviolet absorption at 280 nm and extinction coefficients estimated using the ExPASy ProtParam tool[67].
(§2) ITC measurements were performed on a MicroCal iTC200 system at 25 °C. […] Protein concentrations were determined by spectrophotometry at 280 nm, using extinction coefficients calculated from each protein sequence via the ProtParam program. […]

βARR1 R285A = molecular target: T2, βARR1 R285A (Rattus norvegicus, UniProt P29066, R285A); test: ITC binding to βARR1 mutant R285A
T2 construct: βARR1 or βARR2 construct, with their C terminus truncated (at amino acid 393 or 394, respectively); GST (pGEX4T1) (N, cleaved yes); made in house; host or cells: E. coli BL21 (DE3) pLysS
Protocol: as §1, §2

T2 sequence (P29066 1-393 R285A): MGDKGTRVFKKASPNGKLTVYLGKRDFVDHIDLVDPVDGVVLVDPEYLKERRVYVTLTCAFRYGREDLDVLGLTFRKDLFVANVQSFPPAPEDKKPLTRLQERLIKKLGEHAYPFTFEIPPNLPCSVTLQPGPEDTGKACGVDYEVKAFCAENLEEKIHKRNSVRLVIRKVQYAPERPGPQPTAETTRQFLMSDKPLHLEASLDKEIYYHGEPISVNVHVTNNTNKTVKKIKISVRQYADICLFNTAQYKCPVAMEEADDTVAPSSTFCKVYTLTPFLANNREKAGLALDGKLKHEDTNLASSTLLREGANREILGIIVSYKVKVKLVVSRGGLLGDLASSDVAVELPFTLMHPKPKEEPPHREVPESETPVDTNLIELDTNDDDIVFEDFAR
T1 sequence (P29066 1-393 C251A): as the sequence (P29066 1-393 R285A) above, with C251A, A285R counted along it

For `C=C1C(=O)[C@]23[C@H](O)[C@H]1CC[C@H]2[C@@]12CO[C@]3(O)[C@@H](O)[C@@H]1C(C)(C)CC[C@@H]2O` [Cmpd-5, (1S,4aR,5S,6S,6aR,9S,11aS,11bS,14R)-1,5,6,14-tetrahydroxy−4,4-dimethyl-8-methylenedecahydro-1H-6,11b-(epoxymethano)-6a,9-methanocyclohepta[a]naphthalen-7(8H)-one], the “Kd fold over WT, βARR1 C251A” value (βARR1 C251A) was 8.3 fold, the Kd (βARR1 C251A; 25 °C) was 3 ± 1 µM and the “Kd fold over WT, βARR1 R285A” value (βARR1 R285A) was 46.5 fold. The “ΔH, βARR1 R285A” value (βARR1 R285A; 25 °C) was -1.5 kcal/mol.
